Entries after “also recorded” stand apart in the source; their conditions may differ.
Assays:
MV4-11 tumor xenografts = test: MV4-11 human tumor xenograft regression model in nude mice; assay type: in vivo; settings: Tipifarnib 50 mg/kg oral single agent
Method: Female athymic nude mice (CD-1, nu/nu, 9-10 weeks old) were obtained from Charles River Laboratories (Wilmington, Mass.) and were maintained according to NIH standards. All mice were group housed (5 mice/cage) under clean-room conditions in sterile micro-isolator cages on a 12-hour light/dark cycle in a room maintained at 21-22° C. and 40-50% humidity. Mice were fed irradiated standard rodent diet and water ad libitum. All animals were housed in a Laboratory Animal Medicine facility that is fully accredited by the American Association for Assessment and Accreditation of Laboratory Animal Care (AAALAC). All procedures involving animals were conducted in compliance with the NIH Guide for the Care and Use of Laboratory Animals and all protocols were approved by an Internal Animal Care and Use Committee (IACUC).
On the day of study termination, a final tumor volume and final body weight were obtained on each animal. […]
The time course of the inhibitory effects of FLT3 inhibitor compounds on the growth of MV4-11 tumors is illustrated in FIG. 1. […] Percent inhibition (% I) of tumor growth was calculated versus tumor growth in the vehicle-treated Control group on the last study day.
(See FIG. 2). […] Percent Inhibition was calculated versus the mean tumor weight in the vehicle-treated control group. Statistical significance versus Control was determined by ANOVA followed by Dunnett's t-test: ** p<0.01. […]

[1] = Tolerability in tumor-bearing nude mice (body weight, overt clinical signs); settings: either agent alone or in combination
Method: Female athymic nude mice weighing no less than 20-21 grams were inoculated subcutaneously in the left inguinal region of the thigh with 5×10^6 tumor cells in a delivery volume of 0.2 mL. For regression studies, the tumors were allowed to grow to a pre-determined size prior to initiation of dosing. […] Mice were dosed orally by gavage with vehicle (control group) or compound at various doses twice-daily (b.i.d.) during the week and once-daily (q.d.) on weekends. Dosing was continued for 11 consecutive days, depending on the kinetics of tumor growth and size of tumors in vehicle-treated control mice. […] During the study, tumor growth was measured three times-a-week (M, W, F) using electronic Vernier calipers. Tumor volume (mm^3) was calculated using the formula […], where L=length (mm) and W=width (shortest distance in mm) of the tumor. Body weight was measured three times-a-week and a loss of body weight >10% was used as an indication of lack of compound tolerability. […]
Female athymic nude mice weighing no less than 20-21 grams were inoculated subcutaneously in the left inguinal region of the thigh with 5×10^6 tumor cells in a delivery volume of 0.2 mL. For regression studies, the tumors were allowed to grow to a pre-determined size prior to initiation of dosing. […] During the study, tumor growth was measured three times-a-week (M, W, F) using electronic Vernier calipers. […]

[2] = test system: relapsed and refractory AML; settings: cited from earlier work
MV4-11 AML cells = test: Cell proliferation assay MV4-11, single agents and FTI/FLT3 inhibitor combinations; assay type: cell-based, human; settings: 72-hour cell proliferation assay, FLT3 dependent cells, depending on the cell type
Excerpt: (§1) All data points are an average of triplicate samples.
as §1

[3] = multicenter Phase II trial, relapsed AML
[4] = patients with relapsed and refractory AML, phase I

For `Cn1cncc1C(N)(c1ccc(Cl)cc1)c1ccc2c(c1)c(-c1cccc(Cl)c1)cc(=O)n2C` (single isomer, unassigned; (+)) [Tipifarnib, (+)-6-[amino(4-chlorophenyl)(1-methyl-1H-imidazol-5-yl)methyl]-4-(3-chlorophenyl)-1-methyl-2(1H)-quinolinone], the “effect on tumor volume versus control” value (MV4-11 tumor xenografts; nine days, Day 9) was “not significantly reduced; also recorded: ineffective”, the “effect on tumor growth” value (MV4-11 tumor xenografts; sixteen days) was “ineffective” and the “overt toxicity and adverse effects on body weight” value ([1]; 9-day treatment period) was “No overt toxicity”. The “overt toxicity and adverse effects on body weight” value ([1]; 16-day treatment period) was “No overt toxicity”, the “>50% reduction in bone marrow blasts” value [2, 3] was 31 of 50 and the “complete responses (bone marrow blasts <5%)” value [2, 3] was 17 of 50. For the same compound, the “patients achieving complete remission” value [2, 4] was 2 patients, the response rate [2, 4] was ~30% and the “potency for inhibition of proliferation, single agent” value (MV4-11 AML cells) was “high nanomolar to high picomolar”.

— patent US20060281769A1, “SYNERGISTIC MODULATION OF FLT3 KINASE USING THIENOPYRIMIDINE AND THIENOPYRIDINE KINASE MODULATORS” (priority 2005, published 2006)
